The source of these data is patent US20140107109A1, “AMINO-DIHYDROTHIAZINE AND AMINO-DIOXIDO DIHYDROTHIAZINE COMPOUNDS AS BETA-SECRETASE ANTAGONISTS AND METHODS OF USE” (Amgen Inc., priority 2012, published 2014).

The target in one test is T1, Cathepsin D (Cat D) (Homo sapiens, UniProt P07339).
T1 construct: Recombinant Cat D was expressed in CHO cells; made in house; host or cells: CHO cells
As to the kind of experiment: In vitro enzymatic Cathepsin D (Cat D) FRET assay. It counts as biochemical. As to conditions: read-out: CatD IC50. How it is done:
In Vitro Enzymatic Cathepsin D (Cat D) FRET (Fluorescence Resonance Energy Transfer) Assay Recombinant Cat D was expressed in CHO cells. […] The Cat D enzyme (9 nM) is pre-incubated for one hour with inhibitors, typically in about 1 uL of DMSO according to a serial dilution, is added thereto. […] The FRET assay is terminated with by addition of Tris buffer, which raises the pH to neutrality, and the fluorescence is determined. The FRET substrate is a peptide with commercially available fluorophore and quencher, on opposite sides of the BACE cleavage site. The Cat D substrate peptide sequence is based on sequence #1 of Table 1 from Gulnik et al. […] Alternatively, a Cat D assay may also be run according to the procedure described in the article, Characterization of new fluorgenic substrates for the rapid and sensitive assay of cathepsin E and cathepsin D, J. Biochem., 125:1137, 1999. In addition, the cathepsin D and cathepsin E assays are described in PCT publication WO2011069934. This WIPO publication describes BACE inhibitor compounds having an amide linker connecting two aromatic groups with extremely poor cathepsin D and/or cathepsin E inhibitory activity (see Table 2). Where available, the in-vitro Cat D FRET assay data for each of the Examples, conducted by the first procedure, is provided.

For test [1], the system named is Aβ40 in conditioned medium of cells stably expressing Amyloid Precursor Protein (APP). As to the kind of experiment: In vitro BACE cell-based assay (HEK cell assay), Aβ40 sandwich ELISA. The following applies: Homo sapiens, HEK293; Aβ40, 24 h incubation. How it is done:
In Vitro BACE Cell-Based Assay
The cell-based assay measures inhibition or reduction of Aβ40 in conditioned medium of test compound treated cells expressing amyloid precursor protein.
Cells stably expressing Amyloid Precursor Protein (APP) were plated at a density of 40K cells/well in 96 well plates (Costar). The cells were cultivated for 24 hours at 37C. and 5% CO2 in DMEM supplemented with 10% FBS. The test compounds were then added to cells in 10-point dose response concentrations with the starting concentration being either 100 μM or 10 μM. The compounds were diluted from stock solutions in DMSO and the final DMSO concentration of the test compounds on cells was 0.1%. After 24 h of incubation with the test compounds the supernatant conditioned media was collected and the Aβ 40 levels were determined using a sandwich ELISA. The IC50 of the compound was calculated from the percent of control or percent inhibition of Aβ 40 as a function of the concentration of the test compound.
The sandwich ELISA to detect Aβ 40 was performed in 96 well microtiter plates, which were pre-treated with goat anti-rabbit IgG (Pierce). The capture and detecting antibody pair that were used to detect Aβ 40 from cell supernatants were affinity purified pAb40 (Biosource) and biotinylated 6E10 (Signet Labs Inc.), respectively. The optimal concentration for the pAb40 antibody was 3 μg/ml in Superblock/TBS (Pierce) that was supplemented with 0.05% Tween 20 (Sigma). Optimal concentration for the detection antibody 6E10-biotinylated was 0.5 μg/ml in Superblock/TBS (Pierce) that had been supplemented with 2% normal goat serum and 2% normal mouse serum.
Cellular supernatants were incubated with the capture antibody for 3 h at 4° C., followed by 3 wash steps in TBS-tween (0.05%). The detecting antibody incubation was for 2 h at 4° C., again followed by the wash steps as described previously. The final readout of the ELISA is Time-Resolved Fluorescence (counts per minute) using Delfia reagents Streptavidin-Europium and Enhancement solutions (Perkin Elmer) and the Victor 2 multilabel counter (Perkin Elmer).
(In an ELISA, binding on a coated surface is turned into a signal by an enzyme label.)

The target of test [2] is Beta Secretase enzyme (BACE1) (Homo sapiens, UniProt P56817). As to the kind of experiment: In vitro enzymatic BACE FRET assay. Format: biochemical. The following applies: read-out: BACE1 FRET assay IC50. How it is done: In Vitro Enzymatic BACE FRET (Fluorescence Resonance Energy Transfer) Assay (Enzyme Assay Data in the Example Tables I and II)
The assay buffer used in this screen is 0.05 M acetate, pH 4.2, 10% DMSO final, 100 uM genapol (which is a nonionic detergent, below its Critical Micelle Concentration). […] This assay is effectively started by the addition of FRET substrate (50 nM) and the combination is incubated for one hour. The FRET assay is terminated with by addition of Tris buffer, which raises the pH to neutrality, and the fluorescence is determined. The FRET substrate is a peptide with commercially available fluorophore and quencher, on opposite sides of the BACE cleavage site. Proteolytic cleavage of the FRET substrate releases quenching of fluorescence (excitation […] and […]).

T1 sequence (P07339 65-412, species assumed): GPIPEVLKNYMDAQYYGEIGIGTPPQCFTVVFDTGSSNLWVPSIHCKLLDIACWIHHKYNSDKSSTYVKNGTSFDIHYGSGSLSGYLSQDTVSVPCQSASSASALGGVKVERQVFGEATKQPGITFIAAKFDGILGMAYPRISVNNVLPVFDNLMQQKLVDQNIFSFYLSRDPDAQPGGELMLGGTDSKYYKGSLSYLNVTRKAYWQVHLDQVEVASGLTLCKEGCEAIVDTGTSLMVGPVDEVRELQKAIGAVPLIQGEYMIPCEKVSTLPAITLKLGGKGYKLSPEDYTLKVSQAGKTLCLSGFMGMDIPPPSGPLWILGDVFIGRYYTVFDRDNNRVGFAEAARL
Beta Secretase enzyme (BACE1), sequence (P56817 46-501): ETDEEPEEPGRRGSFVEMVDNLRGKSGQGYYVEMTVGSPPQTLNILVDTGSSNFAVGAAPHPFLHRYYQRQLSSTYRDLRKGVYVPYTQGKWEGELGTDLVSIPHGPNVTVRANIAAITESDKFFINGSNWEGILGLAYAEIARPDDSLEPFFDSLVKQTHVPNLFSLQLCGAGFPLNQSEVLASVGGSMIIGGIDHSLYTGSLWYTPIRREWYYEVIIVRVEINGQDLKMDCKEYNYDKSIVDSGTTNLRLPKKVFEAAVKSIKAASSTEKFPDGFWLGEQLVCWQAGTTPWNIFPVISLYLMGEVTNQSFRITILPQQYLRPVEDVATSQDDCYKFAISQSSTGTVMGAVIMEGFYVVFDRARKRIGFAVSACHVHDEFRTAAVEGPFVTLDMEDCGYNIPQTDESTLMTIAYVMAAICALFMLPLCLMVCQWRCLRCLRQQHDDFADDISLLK

For orientation: IC50 means the concentration at which inhibition is half-maximal. On to `Cc1nc(C(=O)Nc2ccc(F)c([C@]3(C)CS(=O)(=O)C(C)(C)C(N)=N3)c2)cs1` [Example 27, N-(3-((3R)-5-amino-3,6,6-trimethyl-1,1-dioxido-3,6-dihydro-2H-1,4-thiazin-3-yl)-4-fluorophenyl)-2-methyl-1,3-thiazole-4-carboxamide], for which the concentration for half-maximal inhibition (IC50) is > 400 µM at Cathepsin D (Cat D), 60.9 nM in test [1] and 51 nM in test [2].

For the compound `COc1cnc(C(=O)Nc2ccc(F)c([C@]3(C)CS(=O)(=O)CC(N)=N3)c2)cn1` [Example 28, N-(3-((3R)-5-amino-3-methyl-1,1-dioxido-3,6-dihydro-2H-1,4-thiazin-3-yl)-4-fluorophenyl)-5-methoxy-2-pyrazinecarboxamide], the IC50 was determined as 50.9 µM at Cathepsin D (Cat D), 68 nM in test [1] and 14.9 nM in test [2].

Turning to `C[C@@]1(c2cc(NC(=O)c3ccc(Cl)cn3)ccc2F)CS(=O)(=O)CC(N)=N1` [Example 29, N-(3-((3R)-5-amino-3-methyl-1,1-dioxido-3,6-dihydro-2H-1,4-thiazin-3-yl)-4-fluorophenyl)-5-chloro-2-pyridinecarboxamide], the IC50 came out at 118 µM at Cathepsin D (Cat D), 10.8 nM in test [1] and 6 nM in test [2].

Take `COc1cnc(C(=O)Nc2ccc(F)c([C@]3(C)CS(=O)(=O)[C@@](C)(F)C(N)=N3)c2)cn1` [Example 30, N-(3-((3R,6R)-5-amino-6-fluoro-3,6-dimethyl-1,1-dioxido-3,6-dihydro-2H-1,4-thiazin-3-yl)-4-fluorophenyl)-5-methoxy-2-pyrazinecarboxamide]: the IC50 is > 400 µM on Cathepsin D (Cat D), 80.1 nM in test [1] and 3.1 nM in test [2].

With `COc1cnc(C(=O)Nc2ccc(F)c(C3(CF)CS(=O)(=O)C(C)(C)C(N)=N3)c2)cn1` (stereo not drawn) [Example 31, N-(3-(-5-amino-3-(fluoromethyl)-6,6-dimethyl-1,1-dioxido-3,6-dihydro-2H-1,4-thiazin-3-yl)-4-fluorophenyl)-5-methoxy-2-pyrazinecarboxamide], the IC50 at Cathepsin D (Cat D) was > 400 µM; in test [1], 27.9 nM; in test [2] it was 3.8 nM.

Consider `COc1cnc(C(=O)Nc2ccc(F)c(C3(C(F)F)CS(=O)(=O)C(C)(C)C(N)=N3)c2)cn1` (stereo not drawn) [Example 32, N-(3-(-5-amino-3-(difluoromethyl)-6,6-dimethyl-1,1-dioxido-3,6-dihydro-2H-1,4-thiazin-3-yl)-4-fluorophenyl)-5-methoxy-2-pyrazinecarboxamide], for which the IC50 on Cathepsin D (Cat D) is > 400 µM; in test [1], 1420 nM; in test [2] it was 53.1 nM.

In the case of `CC1(c2cc(NC(=O)c3ccc(Cl)cn3)cc(F)c2F)CS(=O)(=O)C(C)(C)C(N)=N1` (stereo not drawn) [Example 35, N-(3-(-5-amino-3,6,6-trimethyl-1,1-dioxido-3,6-dihydro-2H-1,4-thiazin-3-yl)-4,5-difluorophenyl)-5-chloro-2-pyridinecarboxamide], the figures for the half-inhibitory concentration (IC50) (on Cathepsin D (Cat D); in test [1]; in test [2]) were 99.8 µM, 12.2 nM and 2.7 nM, respectively.

On to `COc1cnc(C(=O)Nc2ccc(F)c([C@]3(C(F)F)CS(=O)(=O)C(C)(C)C(N)=N3)c2)cn1` [Example 36, (S)—N-(3-(5-amino-3-(difluoromethyl)-6,6-dimethyl-1,1-dioxido-3,6-dihydro-2H-1,4-thiazin-3-yl)-4-fluorophenyl)-5-methoxypyrazine-2-carboxamide], for which the values for the half-maximal inhibitory concentration (IC50) (at Cathepsin D (Cat D); in test [1]; in test [2]) were > 400 µM, 765 nM and 20.2 nM, respectively.

As to `CC1(C)C(N)=N[C@](C)(c2cc(NC(=O)c3ccc(Cl)cn3)cc(F)c2F)CS1(=O)=O` [Example 38, (R)—N-(3-(5-amino-3,6,6-trimethyl-1,1-dioxido-3,6-dihydro-2H-1,4-thiazin-3-yl)-4,5-difluorophenyl)-5-chloropicolinamide], the IC50 was 72.8 µM at Cathepsin D (Cat D), 6.5 nM in test [1] and 1 nM in test [2].

On to `CC1(C)C(N)=N[C@@](C)(c2cc(NC(=O)c3ccc(Cl)cn3)cc(F)c2F)CS1(=O)=O` [Example 39, (S)—N-(3-(5-amino-3,6,6-trimethyl-1,1-dioxido-3,6-dihydro-2H-1,4-thiazin-3-yl)-4,5-difluorophenyl)-5-chloropicolinamide], for which the IC50 on Cathepsin D (Cat D) was determined as 225 µM; in test [1], 3270 nM; in test [2], 1180 nM.

For `COc1cnc(C(=O)Nc2ccc(F)c([C@]3(C)CS(=O)(=O)C(C)(C)C(N)=N3)n2)cn1` [Example 40, (R)—N-(6-(5-amino-3,6,6-trimethyl-1,1-dioxido-3,6-dihydro-2H-1,4-thiazin-3-yl)-5-fluoropyridin-2-yl)-5-methoxypyrazine-2-carboxamide], the values for the IC50 (on Cathepsin D (Cat D); in test [1]; in test [2]) were > 400 µM, 6980 nM and 8200 nM, respectively.

Regarding `COc1cnc(C(=O)Nc2cc(C3(C)CS(=O)(=O)C(C)(C)C(N)=N3)c(F)cn2)cn1` (stereo not drawn) [Example 41, N-(4-(5-amino-3,6,6-trimethyl-1,1-dioxido-3,6-dihydro-2H-1,4-thiazin-3-yl)-5-fluoropyridin-2-yl)-5-methoxypyrazine-2-carboxamide], the concentration for half-maximal inhibition (IC50) worked out at 333 µM at Cathepsin D (Cat D), 935 nM in test [1] and 252 nM in test [2].

With `COc1cnc2c(Nc3ccc(F)c([C@@]4(C)N=C(N)C(C)(C)S(=O)(=O)[C@@H]4F)c3)nccc2c1` [Example 44, (2S,3R)-5-Amino-2-fluoro-3-(2-fluoro-5-((3-methoxy-1,7-naphthyridin-8-yl)amino)phenyl)-3,6,6-trimethyl-3,6-dihydro-2H-1,4-thiazine 1,1-dioxide], the IC50 on Cathepsin D (Cat D) came out at 357 µM; in test [1], 60.4 nM; in test [2], 9.9 nM.

Consider `CC1(C)C(N)=N[C@](C)(c2cc(Nc3nccc4cc(Cl)cnc34)ccc2F)CS1(=O)=O` [Example 45, N-(3-((3R)-5-amino-3,6,6-trimethyl-1,1-dioxido-3,6-dihydro-2H-1,4-thiazin-3-yl)-4-fluorophenyl)-3-chloro-1,7-naphthyridin-8-amine], for which the IC50 on Cathepsin D (Cat D) amounted to 90.4 µM; in test [1] it was 7.5 nM; in test [2], 0.59 nM.

For the compound `COc1cnc2c(Nc3ccc(F)c([C@]4(C)CS(=O)(=O)C(C)(C)C(N)=N4)c3)nccc2c1` [Example 46, N-(3-((3R)-5-amino-3,6,6-trimethyl-1,1-dioxido-3,6-dihydro-2H-1,4-thiazin-3-yl)-4-fluorophenyl)-3-methoxy-1,7-naphthyridin-8-amine], the values for the IC50 (on Cathepsin D (Cat D); in test [1]; in test [2]) were 397 µM, 4 nM and 5.4 nM, respectively.

Regarding `COc1cnc2c(Nc3ccc(F)c([C@]4(C)CS(=O)(=O)C(C)(C)C(N)=N4)c3)nccc2n1` [Example 47, N-(3-((3R)-5-amino-3,6,6-trimethyl-1,1-dioxido-3,6-dihydro-2H-1,4-thiazin-3-yl)-4-fluorophenyl)-2-methoxypyrido[3,4-b]pyrazin-5-amine], the IC50 at Cathepsin D (Cat D) is > 400 µM; in test [1], 5.6 nM; in test [2], 2.9 nM.
